The values that follow come from ChEMBL document CHEMBL1126372, “Synthesis of L-chiro-inositol 1,4,6-trisphosphorothioate, a potent and selective inhibitor of myo-inositol 1,4,5-trisphosphate 5-phosphatase” (Bioorg Med Chem Lett, 1992).

Assay [1] in a line: Tested for the ability to inhibit dephosphorylation of [3H]Ins(1,4,5)P3 of human erythrocyte membrane Ins(1,4,5)P3 5- phosphatase. Format: functional.
Assay [2] is described as follows: Inhibition of [3H]Ins(1,4,5)P3 phosphorylation by crude rat brain Ins(1,4,5)P3 3-kinase at 250 uM (Inactive). Format: functional.
Assay [3] is described as follows: Effective concentration required to mobilize [Ca2+] from intracellular stores using electrically permeabilised human neuroblastoma cells. In kind it is functional, cell-based.

By Ki is commonly meant a dissociation constant, usually derived from enzyme kinetics or from competition with a known ligand. Low readings indicate a stronger hold on the target, high ones a looser hold on the target. As usually defined, the EC50 is the concentration that produces a half-maximal response. Low values mean an effect from little substance, high ones a need for much substance.

Molecules are shown by their SMILES. Activity calls are given as the source filed them.

The compound `O=P(O)(O)OC1C(O)C(O)C(OP(=O)(O)O)C(OP(O)(O)=S)C1O` (stereo in doubt) displayed a Ki in assay [1] of 6.8 µM. Same read-out and setting: then `OC1C(O)C(OP(O)(O)=S)C(OP(O)(O)=S)C(O)C1OP(O)(O)=S` (stereo in doubt), with 1.7 µM; and `OC1C(O)C(OP(O)(O)=S)C(OP(O)(O)=S)C(O)C1OP(O)(O)=S` (stereo in doubt; 2), with 350 µM; and `O=P(O)(O)OC1C(O)C(O)C(OP(=O)(O)O)C(OP(O)(O)=S)C1O` (stereo in doubt; 4), with 978 µM. `OC1C(O)C(OP(O)(O)=S)C(OP(O)(O)=S)C(O)C1OP(O)(O)=S` (stereo in doubt; 8) [listing 1 of 2 here] displayed a Ki in assay [1] of 0.3 µM. Take `OC1C(O)C(OP(O)(O)=S)C(OP(O)(O)=S)C(O)C1OP(O)(O)=S` (stereo in doubt; 8) [listing 2 of 2 here]: the inhibition result in assay [2] is “inactive”. In turn, `O=P(O)(O)O[C@@H]1[C@H](O)[C@H](O)[C@@H](OP(=O)(O)O)[C@H](OP(=O)(O)O)[C@H]1O` [INS(1,4,5)P3] came in with a Ki in assay [1] of 44 µM. In addition, in assay [3], the midpoint of the response, the EC50, lay at 120 nM. In assay [2], the inhibition result is “inactive”.
